Literature values in patent US20040116329A1, “Inhibition of proteasomes to prevent restenosis” (priority 2004, published 2004).
Read-outs that look alike come from different tables or passages of the source.

Tests used:
apoptosis [1] = conditions: through stabilization of proteins critical for cell cycle progression and control of apoptosis
[2] = given orally
SMC [3] = conditions: in vitro
SMC [4] = conditions: in vitro; remark: listed apart in the source
neointimal accumulation = conditions: in vivo, rat carotid artery injury model
apoptosis [5] = conditions: biologically relevant concentrations

Row | Compound | induction of apoptosis (apoptosis [1]) | activity in tumor treatment in combination (various tumors; in combination with standard chemotherapeutic agents or radiation) | volume of various tumors (various tumors; in vivo) | major side effects [2] | platelet-derived growth factor-stimulated SMC migration (SMC [3]) | SMC proliferation (SMC [4]) | neointimal accumulation (neointimal accumulation) | induction of apoptosis (apoptosis [5])
1 | CC(C)C[C@H](NC(=O)[C@H](Cc1ccccc1)NC(=O)c1cnccn1)B(O)O [LDP-341] | induce apoptosis | appears very active | effective in reducing the volume of various tumors | gastrointestinal in nature | – | – | – | –
2 | CC(=O)O[C@H]1C(=O)[C@@]2(C)[C@H]([C@H](OC(=O)c3ccccc3)[C@]3(O)C[C@H](OC(=O)[C@H](O)[C@@H](NC(=O)c4ccccc4)c4ccccc4)C(C)=C1C3(C)C)[C@]1(OC(C)=O)CO[C@@H]1C[C@@H]2O [paclitaxel] | – | – | – | – | inhibited | inhibited | inhibited neointimal accumulation | does not appear to induce apoptosis
